From patent US20240301409A1, “Chemically Modified Small Activating RNA” (RACTIGEN THERAPEUTICS, priority 2021, published 2024) come the findings set out here.

Oligonucleotides are written 5' to 3', each unit as a sugar letter and its base; * is a phosphorothioate linkage, no mark a phosphodiester; rarer units and linkages stand in square brackets, end groups in braces. Plain capitals give the bases only. m = 2'-O-methyl; r = 2'-OH (RNA); f = 2'-fluoro

The test system of one data set is TNF-α. The experiment in a line: PBMC cytokine release assay, TNF-α (ELISA). In kind it is cell-based, human. Conditions: 10 nM, 24 hours. As for the experimental part: Data represent mean±SD of two independent experiments. […] The values below the line indicate suppressed activities.
Each treatment group was analyzed in triplicate.
(In general: ELISA stands for enzyme-linked immunosorbent assay.)

The next data set concerns the target T1, RNase A (Bos taurus, UniProt P61823).
T1 sequence (P61823 27-150): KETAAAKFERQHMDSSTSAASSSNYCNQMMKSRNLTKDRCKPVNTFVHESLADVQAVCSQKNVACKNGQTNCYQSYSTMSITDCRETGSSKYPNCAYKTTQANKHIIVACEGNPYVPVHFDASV
The data set is described as follows: saRNA stability analysis in the presence of RNase A (agarose gel). Conditions: incubation 0 to 96 hours.

The test system of data set [1] is Rag1-40 target sequence in the 3′ UTR of firefly luciferase, COS-1 cells. The experiment in a line: Analysis of off-target effects (pOff-Target dual luciferase reporter in COS-1 cells). The note with it: lysed 48 hours after transfection, luciferase activity.
Data set [2] in a line: Stability of RNA duplex in human urine (agarose gel). Conditions: 37° C.
Protocol: Double-stranded RNA (7.5 μL, 10 μM) diluted in 17.5 μL PBS was incubated with 25 μL human fresh urine at 37° C. for 0, 1, 24 and 48 hours, respectively. The duplexes obtained at each time point indicated above were each added to 1 μL of 10× loading buffer, and then frozen in liquid nitrogen. After incubation, all samples were detected for the double-stranded RNA by 4% agarose gel electrophoresis, and the content of each duplex was analyzed by Image J software.
To further test the stability of the chemically modified double-stranded saRNA in human urine, the duplexes were incubated in urine for different durations ranging from 0 to 48 hours.
A further data set concerns INF-α. The data set is described as follows: PBMC cytokine release assay, INF-α (ELISA). The note with it: PBMC, 10 nM, 24 hours.

Protocol for INF-α: Cells were treated with the indicated duplexes at a final concentration of 10 nM or lipopolysaccharide (LPS) as a positive control for 24 hours, respectively. The levels of INF-α and TNF-α in the cell supernatant were detected by ELISA kit. […] Data represent mean±SD of two independent experiments.
Human peripheral blood mononuclear cells (Allcells, Alameda, CA) were seeded in a 96-well microplate at a density of approximately 10×10^4 cells/well. Transfection of dsRNA was performed using RNAiMAX (Invitrogen, Carlsbad, CA) following manufacturer's instructions. Supernatants were collected 24 hours after transfection and immediately assayed for IFN-α and TNF-α production using ELISA kit (R&D Systems). Each treatment group was analyzed in triplicate.
To assess the immunostimulatory effect of chemically modified saRNAs, human peripheral blood mononuclear cells (PBMC) from healthy donors were incubated with the double-stranded saRNAs, and INF-α and TNF-α levels in the supernatant of treated cells after 24 hours were measured.
Protocol for RNase A: The duplexes obtained at each time point above were each added to 1 μL of 10× loading buffer, and then frozen in liquid nitrogen. After incubation, all samples were detected for the double-stranded RNA by 4% agarose gel electrophoresis, and the content of each duplex was analyzed by Image J software.
The duplexes obtained at each time point indicated above were each added to 1 μL of 10× loading buffer, and then frozen in liquid nitrogen. After incubation, all samples were detected for the double-stranded RNA by 4% agarose gel electrophoresis, and the content of each duplex was analyzed by Image J software.
saRNA (1.5 μL, 10 μM) was incubated at a final concentration of 0.02 mg/mL in PBS in the presence of RNase A (Amresco, OH, USA) at 37° C. for different durations. At the end of the incubation, the mixture was snap frozen in liquid nitrogen to stop nuclease activity. Samples were analyzed on a 4% agarose gel and examined for duplex degradation.
All chemically modified duplexes (Rag1-40-1 to Rag1-40-32) were incubated with 0.02 μg/L of RNase A for different durations (0 to 96 hours). At the end of the incubation, the size and amount of duplexes were detected by agarose gel electrophoresis.

“Rag1-40-3: saRNA duplex: sense mCmCAACUCAUUCUCCAAGmUmC (SEQ ID NO 5); antisense fUmAfCfUfUmGmGmAmGmAmAfUmGmAmGfUfUmGmGfCmA (SEQ ID NO 8) (sense mCmCrArArCrUrCrArUrUrCrUrCrCrArArGmUmC)”: the “immunostimulatory effect (TNF-α induction) compared with Rag1-40, in words” value in the data set with TNF-α was “unchanged immunostimulatory activity”. In the data set with RNase A, the “degradation of duplex at 96 hours” value is listed as “little or no signs of degradation”. Also, the “off-target effect compared to unmodified Rag1-40, in words” value in data set [1] is recorded as “completely inhibited”.

On to “Rag1-40-17: saRNA duplex: sense mCmCAACUCAUUCUCCAAG*U*C (SEQ ID NO 15); antisense fUAfCfUfUGGAGAAfUGAGfUfUGGfCA (SEQ ID NO 6) (sense CCAACUCAUUCUCCAAGUC; antisense UACUUGGAGAAUGAGUUGGCA; 2'-OMe, 2'-F, phosphorothioates; modified_base (1)..(2) (1,2)=2′-O-methyl(2′-OMe); modified_base (17)..(19) (17,18,19)=phosphorothioate (PS) backbone modification; modified_base (1)..(20) (1,3,4,5,12,16,17,20)=2′-fluoro)”, for which the “degradation of duplex at 48 hours” value in data set [2] was “no sign of degradation”. The “degradation of duplex at 96 hours” value with RNase A is recorded as “little or no signs of degradation”. The “off-target effect compared to unmodified Rag1-40, in words” value in data set [1] is given as “mitigated or similar off-target effects”.

On to “Rag1-40-25: saRNA duplex: sense fCfCAACUCAUUCUCCAAG*U*C (SEQ ID NO 16); antisense fUAfCfUfUGGAGAAfUGAGfUfUGGfCA (SEQ ID NO 6) (sense CCAACUCAUUCUCCAAGUC; antisense UACUUGGAGAAUGAGUUGGCA; 2'-F, phosphorothioates; modified_base (1)..(2) (1,2)=2′-fluoro; modified_base (17)..(19) (17,18,19)=phosphorothioate (PS) backbone modification; modified_base (1)..(20) (1,3,4,5,12,16,17,20)=2′-fluoro)”, for which the “degradation of duplex at 48 hours” value in data set [2] is listed as “no sign of degradation”. Further, the “degradation of duplex at 96 hours” value in the data set with RNase A is listed as “little or no signs of degradation”. The “off-target effect compared to unmodified Rag1-40, in words” value in data set [1] is “mitigated or similar off-target effects”.

“Rag1-40-29: saRNA duplex: sense fCfCAACUCAUUCUCCAAG*U*C (SEQ ID NO 16); antisense UACUfUGGAGAAfUGAGUfUGG*fC*A (SEQ ID NO 10) (sense CCAACUCAUUCUCCAAGUC; antisense UACUUGGAGAAUGAGUUGGCA; 2'-F, phosphorothioates; modified_base (1)..(2) (1,2)=2′-fluoro; modified_base (17)..(19) (17,18,19)=phosphorothioate (PS) backbone modification; modified_base (5)..(20) (5,12,17,20)=2′-fluoro; modified_base (19)..(21) (19,20,21)=phosphorothioate (PS) backbone modification)”: in data set [2], the “degradation of duplex at 48 hours” value was “mostly degraded”. In addition, in the data set on INF-α, the “immunostimulatory activity (INF-α) compared with Rag1-40, in words” value is given as “reduced immunostimulatory activity”. Moreover, in data set [1], the “off-target effect compared to unmodified Rag1-40, in words” value was “mitigated or similar off-target effects”.
